Consider ten compounds from patent US20250206724A1, “SUBSTITUTED 3-AMINO INDAZOLE DERIVATIVES AS KINASE INHIBITORS” (NERVIANO MEDICAL SCIENCES S.R.L., priority 2022, published 2025).

For one assay, the system named is EoL-1-cell. The experiment in a line: Cytotoxicity assay (CellTiterGlo, 72 hours treatment), EoL-1. It is filed as cell-based, Human. The conditions noted are these: Homo sapiens, ATP determination, read-out: Cell line IC50 EoL-1-cell. The procedure: (§1) Cell Lines and Cell Cultures
(§2) All cell lines were seeded at a density ranging from 2,400 to 8,000 cells/well in 384-well cell culture microplates and incubated at […] in a humidified 5% […] atmosphere 24 hours before treatment. Compound solutions were directly administered to the cells using the D300e digital dispenser (Tecan) to obtain scalar final concentrations ranging from 5 nM to 10 μM (duplicate wells for each point), with 80 uL final volume per well. The final DMSO concentration in test wells was adjusted to 0.1% (v/v); control wells were mock-treated and contained the same final concentration of DMSO.
(§3) Cell viability was determined after 72 hours treatment by ATP determination in each test well with a luciferase-based detection system (CellTiterGlo, Promega, Madison, WI, USA), following manufacturer's instructions. The intensity of emitted light was measured using an EnVision reader (PerkinElmer, Waltham, MA USA) and expressed as RLU. One to three independent experiments were performed for each cell line, as indicated.
(§4) Analysis of Antiproliferative Data
(§5) Cell growth inhibitory activity was evaluated comparing treated versus control data using the Assay Explorer software suite (Symix Technologies Inc.). IC50s values were calculated by sigmoidal fitting interpolation using the following quadriparametric Hill equation: […]
(§6) The Top, Bottom and Hill slope parameters were left free to assume any value, but only curves whose Hill slope had values between 0.5 and 4 were arbitrarily considered acceptable and used to calculate the average IC50s. Curves too steep (HillSlope≥4) or too slight (HillSlope≤0.5) were not included (Table C).

The subject of another assay is MOLM-13. The experiment in a line: Cytotoxicity assay (CellTiterGlo, 72 hours treatment), MOLM-13. It is filed as cell-based, Human. The conditions noted are these: Homo sapiens, MOLM-13 acute myeloid leukemia cells, ATP determination, read-out: Cell line IC50 MOLM-13. The protocol:
as §1, §2, §3, §4, §5, §6

The subject of another assay is NB-4. The assay can be described thus: Cytotoxicity assay (CellTiterGlo, 72 hours treatment), NB-4. The assay is classed as cell-based, Human. The settings on record: Homo sapiens, NB-4 acute myeloid leukemia cells, ATP determination, read-out: Cell line IC50 NB-4. The procedure: as §1, §2, §3, §4, §5, §6
The next assay has as its target T1, CDK11A (Homo sapiens, UniProt Q9UQ88).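 Further: compound preincubated 30 min with CDK11A-p58, then probe added and polarization (mP) read 15 min later, 0% displacement is probe plus enzyme, 100% is probe alone.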
T1 sequence (Q9UQ88 346-783): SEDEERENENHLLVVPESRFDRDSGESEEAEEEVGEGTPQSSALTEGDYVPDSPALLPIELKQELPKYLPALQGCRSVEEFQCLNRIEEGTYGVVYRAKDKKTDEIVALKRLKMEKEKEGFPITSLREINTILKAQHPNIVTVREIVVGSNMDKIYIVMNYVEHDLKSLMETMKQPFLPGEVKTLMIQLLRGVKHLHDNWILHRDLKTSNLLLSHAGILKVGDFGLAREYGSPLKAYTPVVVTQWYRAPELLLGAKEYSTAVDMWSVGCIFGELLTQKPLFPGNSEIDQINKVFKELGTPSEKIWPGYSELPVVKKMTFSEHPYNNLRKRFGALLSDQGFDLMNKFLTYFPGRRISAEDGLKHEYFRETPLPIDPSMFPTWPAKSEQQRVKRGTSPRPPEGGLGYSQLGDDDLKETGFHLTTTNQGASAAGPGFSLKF
The settings on record: displacement of SNS-032-Atto590 probe (0.002 μM) from CDK11A-p58 (0.032 uM), fluorescence polarization.

[1] abbreviates: EOL1, 72 h, EoL-1 acute myeloid leukemia cells.

Structures are written as SMILES. Where a name gives a salt, the structure may show the parent alone. Read-outs that look alike come from different tables or passages of the source.

On to `N#Cc1ccc(Cl)c(-c2ccc3[nH]nc(NC(=O)[C@@H]4CCNC4)c3c2)c1` [compound 176, (3R)-N-[5-(2-Chloro-5-cyanophenyl)-1H-indazol-3-yl]pyrrolidine-3-carboxamide hydrochloride], for which the IC50 was 425 nM in the assay with EoL-1-cell (setting [1]); 505 nM in the assay with MOLM-13 (MOLM-13, 72 h); 384 nM in the assay with NB-4 (NB-4, 72 h). This compound also gave a DC50 at CDK11A of 18 nM.

For `C[C@@H]1CC[C@@H](C(=O)Nc2n[nH]c3ccc(-c4cc(C#N)ccc4Cl)cc23)CN1` [compound 179, (3R,6R)-N-[5-(2-Chloro-5-cyanophenyl)-1H-indazol-3-yl]-6-methylpiperidine-3-carboxamide trifluoroacetate], the IC50 in the assay with EoL-1-cell (setting [1]) came out at 259 nM; in the assay with MOLM-13 (MOLM-13, 72 h), 414 nM; in the assay on NB-4 (NB-4, 72 h) it was 335 nM. For the same compound, the DC50 on CDK11A amounted to 21 nM.

As for `CC1(C)CCC(C(=O)Nc2n[nH]c3ccc(-c4cc(C#N)ccc4Cl)cc23)CN1` (stereo not shown) [compound 184, N-[5-(2-Chloro-5-cyanophenyl)-1H-indazol-3-yl]-6,6-dimethylpiperidine-3-carboxamide hydrochloride], the IC50 in the assay with EoL-1-cell (setting [1]) was 160 nM; in the assay on MOLM-13 (MOLM-13, 72 h) it was 164 nM; in the assay on NB-4 (NB-4, 72 h), 151 nM. Further, the DC50 at CDK11A amounted to 29 nM.

As to `N#Cc1ccc(Cl)c(-c2ccc3[nH]nc(NC(=O)C4CCC5(CCCC5)NC4)c3c2)c1` (stereo not shown) [compound 185, N-[5-(2-Chloro-5-cyanophenyl)-1H-indazol-3-yl]-6-azaspiro[4.5]decane-8-carboxamide hydrochloride], the IC50 in the assay with EoL-1-cell (setting [1]) was 294 nM; in the assay with MOLM-13 (MOLM-13, 72 h), 261 nM; in the assay with NB-4 (NB-4, 72 h), 204 nM. Moreover, the DC50 on CDK11A stood at 21 nM.

Consider `N#Cc1ccc(Cl)c(-c2ccc3[nH]nc(NC(=O)C4CCC5(CCCCC5)NC4)c3c2)c1` (stereo not shown) [compound 186, N-[5-(2-Chloro-5-cyanophenyl)-1H-indazol-3-yl]-1-azaspiro[5.5]undecane-3-carboxamide hydrochloride], for which the IC50 came to 315 nM with EoL-1-cell (setting [1]); 303 nM with MOLM-13 (MOLM-13, 72 h); 365 nM in the assay on NB-4 (NB-4, 72 h). Further, the DC50 on CDK11A worked out at 65 nM.

Regarding `Cc1ccc(C#N)cc1-c1ccc2[nH]nc(NC(=O)[C@@H]3CCCNC3)c2c1` [cpd 24, (3R)-N-[5-(5-Cyano-2-methylphenyl)-1H-indazol-3-yl]piperidine-3-carboxamide hydrochloride], the IC50 worked out at 423 nM in the assay with EoL-1-cell (setting [1]); 563 nM with MOLM-13 (MOLM-13, 72 h); 595 nM in the assay on NB-4 (NB-4, 72 h). At CDK11A, this compound showed a DC50 of 43 nM.

Regarding `N#Cc1ccc(F)c(-c2ccc3[nH]nc(NC(=O)[C@@H]4CCCNC4)c3c2)c1` [cpd 25, (3R)-N-[5-(5-Cyano-2-fluorophenyl)-1H-indazol-3-yl]piperidine-3-carboxamide hydrochloride], the half-inhibitory concentration (IC50) is 1720 nM in the assay on EoL-1-cell (setting [1]); 2860 nM in the assay on MOLM-13 (MOLM-13, 72 h); 1660 nM in the assay with NB-4 (NB-4, 72 h). At CDK11A, the DC50 was 31 nM.

As for `O=C(Nc1n[nH]c2ccc(-c3cc([N+](=O)[O-])ccc3Cl)cc12)[C@@H]1CCCNC1` [cpd 26, (3R)-N-[5-(2-Chloro-5-nitrophenyl)-1H-indazol-3-yl]piperidine-3-carboxamide hydrochloride], the IC50 in the assay on EoL-1-cell (EOL1, EoL-1 acute myeloid leukemia cells) amounted to 126 nM; in the assay with MOLM-13 it was 154 nM; in the assay on NB-4 it was 141 nM. The same compound had a DC50 on CDK11A of 23 nM.

For `Cc1ccc(F)c(-c2ccc3[nH]nc(NC(=O)[C@@H]4CCCNC4)c3c2)c1` [cpd 32, (3R)-N-[5-(2-Fluoro-5-methylphenyl)-1H-indazol-3-yl]piperidine-3-carboxamide hydrochloride], the IC50 with EoL-1-cell (setting [1]) is 2040 nM; in the assay with MOLM-13 (MOLM-13, 72 h), 1510 nM; in the assay with NB-4 (NB-4, 72 h), 2480 nM. Further, the DC50 at CDK11A was found to be 23 nM.

For the compound `CC(=O)c1ccc(Cl)c(-c2ccc3[nH]nc(NC(=O)[C@@H]4CCCNC4)c3c2)c1` [cpd 33, (3R)-N-[5-(5-Acetyl-2-chlorophenyl)-1H-indazol-3-yl]piperidine-3-carboxamide hydrochloride], the IC50 turned out to be 1380 nM in the assay with EoL-1-cell (setting [1]); 1350 nM in the assay with MOLM-13 (MOLM-13, 72 h); 1560 nM with NB-4 (NB-4, 72 h). This compound displayed a DC50 at CDK11A of 19 nM.
